According to EP0518753B1, “Derivatives of 1,5-diyne-3-cycloalcene, their process of preparation and pharmaceutical compositions containing them” (ADIR ET COMPAGNIE, priority 1991, dated 1992):

The compounds below were run on cellules L 1210 (Leucémie murine) (assay: In vitro cytotoxicity, Microculture Tetrazolium Assay (cell growth inhibition)). Conditions: Mus musculus, L1210, L 1210 cells in RPMI 1640 with 10 % fetal calf serum, read-out: IC₅₀, concentration inhibant à 50 % la croissance cellulaire.
Format: cell-based
Description: Les cellules L 1210 (Leucémie murine) sont cultivées dans du RPMI 1640 complémenté avec 10 % de sérum de veau foetal, 2 mM de L-glutamine, 100 unités/ml de pénicilline, 100 µg/ml de streptomycine et 10 mM d'Hepes (pH : 7,4). L'inhibition de la croissance cellulaire est mesurée selon le "Microculture Tetrazolium Assay" décrit par M. ALLEY et coll. (Cancer Res., 48, 589-601, 1988).
Les résultats de ce test sont exprimés en IC₅₀, concentration inhibant à 50 % la croissance cellulaire. Le produit de référence utilisé est le BCNU, agent alkylant très actif utilisé en clinique.
`O=NN(CCCl)C(=O)NCCCl` [BCNU, reference compound] gave an IC50 of 6.4 µM. `CC(=O)OC1C#C/C=C\C#CCCC1` (stereo not drawn) [exemple 2, 7-Acétoxy-1,5-diyne-3-cyclodécène] was tested, and the IC50 was 5.6 µM. Compound `O=C1C#Cc2ccccc2C#CCCC1` [exemple 7, 7-Oxo-benzo[c]cyclodéca-1,5-diyne] has an IC50 of 0.5 µM.
